Measurements published in US20060068012A1, “Process for preparing poly (vinyl alcohol) drug delivery devices with humidity control” (Bausch & Lomb Incorporated, priority 2004, published 2006).

Assay: thermal stability of the medicament at poly(vinyl alcohol) curing temperature
Format: physicochemical
Details: heating during curing of poly(vinyl alcohol)
Description: Optionally, the temperature proximate the first drug delivery device and the temperature proximate the second drug delivery device is a minimum of about 120° C. and a maximum of about 210° C. In an embodiment, the temperature proximate the first drug delivery device and the temperature proximate the second drug delivery device is a minimum of about 125° C., about 130° C., about 135° C. or about 140° C. and/or a maximum of about 210° C., about 200° C., about 180° C., about 170° C., about 150° C. or about 140° C. The desired temperature for curing the poly(vinyl alcohol) is dependent upon several factors. If a temperature is selected below about 120° C., the poly(vinyl alcohol) will not cure effectively. If the temperature is above about 210° C., decomposition of the poly(vinyl alcohol) will occur. If the poly(vinyl alcohol) is cured in the presence of the medicament, the stability of the medicament must be considered. For example, flucinolone acetonide begins to decompose above a temperature of about 165° C. Thus, it is desired that a temperature for curing poly(vinyl alcohol) in the presence of flucinolone acetonide be in the range of about 120° C. to about 150° C. and preferably about 135° C.

temperature above which the medicament begins to decompose: > 165 °C
Compound: CC1(C)O[C@@H]2C[C@H]3[C@@H]4C[C@H](F)C5=CC(=O)C=C[C@]5(C)[C@@]4(F)[C@@H](O)C[C@]3(C)[C@]2(C(=O)CO)O1 [flucinolone acetonide]
